Data: paper PMC6601628 (Science (New York, N.Y.), 2019)

Tests used:
eIF2B(βγδε)2 octamer [1] = molecular target: eIF2B(βγδε)2 octamer (Homo sapiens, UniProt P49770+Q9UI10, P49770:N132D); assay: GEF activity, loading of fluorescent GDP onto eIF2; assay type: biochemical; conditions: activator; stabilises assembly of two tetramers; substrate eIF2
eIF2B(βγδε)2 octamer [2] = molecular target: eIF2B(βγδε)2 octamer (Homo sapiens, UniProt P49770+Q9UI10); assay: GEF activity, loading of fluorescent GDP onto eIF2; assay type: biochemical; conditions: activator; stabilises assembly of two tetramers; substrate eIF2
Sequence of eIF2B(βγδε)2 octamer (Homo sapiens, UniProt P49770+Q9UI10) (P49770 whole entry): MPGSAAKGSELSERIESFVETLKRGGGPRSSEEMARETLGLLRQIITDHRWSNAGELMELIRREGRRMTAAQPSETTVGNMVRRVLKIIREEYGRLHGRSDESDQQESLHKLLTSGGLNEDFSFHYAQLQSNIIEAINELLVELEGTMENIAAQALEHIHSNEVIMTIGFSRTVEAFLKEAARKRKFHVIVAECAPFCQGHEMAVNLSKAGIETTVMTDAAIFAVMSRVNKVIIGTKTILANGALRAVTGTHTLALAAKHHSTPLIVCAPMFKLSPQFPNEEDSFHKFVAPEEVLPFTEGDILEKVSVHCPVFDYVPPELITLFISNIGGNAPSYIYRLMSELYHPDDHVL
Sequence of eIF2B(βγδε)2 octamer (Homo sapiens, UniProt P49770+Q9UI10) (Q9UI10 whole entry): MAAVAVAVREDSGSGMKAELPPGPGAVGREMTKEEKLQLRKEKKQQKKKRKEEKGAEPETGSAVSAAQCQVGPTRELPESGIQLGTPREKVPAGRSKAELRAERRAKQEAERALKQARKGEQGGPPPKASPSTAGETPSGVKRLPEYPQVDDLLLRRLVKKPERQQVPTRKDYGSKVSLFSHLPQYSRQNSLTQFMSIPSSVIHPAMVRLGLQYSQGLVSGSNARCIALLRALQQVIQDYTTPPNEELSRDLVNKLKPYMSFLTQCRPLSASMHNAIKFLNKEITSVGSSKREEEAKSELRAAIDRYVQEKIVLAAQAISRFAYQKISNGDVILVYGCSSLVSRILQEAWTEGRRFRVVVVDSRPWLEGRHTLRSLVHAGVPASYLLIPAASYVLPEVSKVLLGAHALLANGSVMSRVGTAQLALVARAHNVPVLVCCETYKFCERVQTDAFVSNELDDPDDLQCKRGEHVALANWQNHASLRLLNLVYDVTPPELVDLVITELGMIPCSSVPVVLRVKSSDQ
Sequence of eIF2B(βγδε)2 octamer (Homo sapiens, UniProt P49770+Q9UI10) (Q9NR50 whole entry partner): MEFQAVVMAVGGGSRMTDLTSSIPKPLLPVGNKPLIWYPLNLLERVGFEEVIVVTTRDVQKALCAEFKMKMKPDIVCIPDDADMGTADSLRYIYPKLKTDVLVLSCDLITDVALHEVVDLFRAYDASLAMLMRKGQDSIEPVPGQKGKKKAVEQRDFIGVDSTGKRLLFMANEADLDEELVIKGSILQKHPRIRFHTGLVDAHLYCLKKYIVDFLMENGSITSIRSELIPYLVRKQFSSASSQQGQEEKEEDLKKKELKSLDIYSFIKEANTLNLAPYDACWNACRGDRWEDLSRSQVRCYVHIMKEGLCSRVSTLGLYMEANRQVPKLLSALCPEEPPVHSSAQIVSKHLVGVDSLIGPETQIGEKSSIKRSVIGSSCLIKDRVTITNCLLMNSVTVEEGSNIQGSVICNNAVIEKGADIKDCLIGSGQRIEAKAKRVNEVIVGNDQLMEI
Sequence of eIF2B(βγδε)2 octamer (Homo sapiens, UniProt P49770+Q9UI10) (Q13144 2-721 partner): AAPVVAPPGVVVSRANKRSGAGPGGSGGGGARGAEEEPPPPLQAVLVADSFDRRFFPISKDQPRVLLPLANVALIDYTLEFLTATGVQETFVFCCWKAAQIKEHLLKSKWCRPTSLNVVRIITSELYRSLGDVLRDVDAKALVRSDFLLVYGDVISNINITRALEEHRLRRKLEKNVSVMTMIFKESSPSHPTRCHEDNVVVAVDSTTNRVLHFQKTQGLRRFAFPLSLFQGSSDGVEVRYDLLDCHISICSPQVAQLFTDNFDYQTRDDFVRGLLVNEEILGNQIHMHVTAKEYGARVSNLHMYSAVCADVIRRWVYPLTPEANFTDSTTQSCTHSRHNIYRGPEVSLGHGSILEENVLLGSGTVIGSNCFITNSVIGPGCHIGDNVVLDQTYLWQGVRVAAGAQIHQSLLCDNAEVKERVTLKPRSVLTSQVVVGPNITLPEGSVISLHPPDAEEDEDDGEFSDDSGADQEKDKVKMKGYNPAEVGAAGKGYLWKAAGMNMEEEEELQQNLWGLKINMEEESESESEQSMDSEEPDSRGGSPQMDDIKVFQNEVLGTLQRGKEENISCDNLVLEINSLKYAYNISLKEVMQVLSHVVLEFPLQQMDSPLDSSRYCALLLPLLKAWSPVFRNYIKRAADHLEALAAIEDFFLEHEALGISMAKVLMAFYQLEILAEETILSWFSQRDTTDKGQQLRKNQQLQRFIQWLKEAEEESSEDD

Sequence of eIF2B(βγδε)2 octamer (Homo sapiens, UniProt P49770+Q9UI10, P49770:N132D) (P49770 whole entry N132D): as the sequence (P49770 whole entry) above, with N132D counted along it
Sequence of eIF2B(βγδε)2 octamer (Homo sapiens, UniProt P49770+Q9UI10, P49770:N132D) (Q9UI10 whole entry): as the sequence (Q9UI10 whole entry) above
Sequence of eIF2B(βγδε)2 octamer (Homo sapiens, UniProt P49770+Q9UI10, P49770:N132D) (Q9NR50 whole entry partner): as the sequence (Q9NR50 whole entry partner) above
Sequence of eIF2B(βγδε)2 octamer (Homo sapiens, UniProt P49770+Q9UI10, P49770:N132D) (Q13144 2-721 partner): as the sequence (Q13144 2-721 partner) above

For `O=C(COc1ccc(Cl)cc1)N[C@H]1CC[C@H](NC(=O)COc2ccc(Cl)cc2)CC1` [ISRIB], the “GEF activity, loading of fluorescent GDP onto eIF2” value (eIF2B(βγδε)2 octamer [1]) was “eIF2B-βN132D tetramers and ISRIB-stabilized octamers” and the “GEF activity, loading of fluorescent GDP onto eIF2” value (eIF2B(βγδε)2 octamer [2]) was “GEF activity of the ISRIB-stabilized eIF2B octamer”.
